The values that follow are results of earlier work, collected in patent US20130028962A1, “Triggered Cargo Release from Nanoparticle Stabilized Liposomes” (THE REGENTS OF THE UNIVERSITY OF CALIFORNIA, priority 2010, published 2013).

The subject of this data set is MRSA bacteria. Conditions: against MRSA bacteria.

For `CN[C@H](CC(C)C)C(=O)N[C@H]1C(=O)N[C@@H](CC(N)=O)C(=O)N[C@H]2C(=O)N[C@H]3C(=O)N[C@H](C(=O)N[C@H](C(=O)O)c4cc(O)cc(O)c4-c4cc3ccc4O)[C@H](O)c3ccc(c(Cl)c3)Oc3cc2cc(c3O[C@@H]2O[C@H](CO)[C@@H](O)[C@H](O)[C@H]2O[C@H]2C[C@](C)(N)[C@H](O)[C@H](C)O2)Oc2ccc(cc2Cl)[C@H]1O` [vancomycin], the “minimal inhibitory concentration (MIC)” value is given as “about 2 μg/mL”.
